The values that follow come from US20220235047A1, “A MEDICAMENT FOR TREATING MYCOBACTERIAL INFECTION CHARACTERIZED BY COMBINING A CYTOCHROME bc1 INHIBITOR WITH CLARITHROMYCIN OR AZITHROMYCIN AND CLOFAZIMINE” (priority 2019, published 2022).

Data set [1] relates to cytochrome P-450 (CYP) 3A. To be noted: cited from earlier work.
Data set [2] relates to Mycobacterium avium ATCC700898. Put plainly: Test3: mouse lung infection model, CFU in lungs after 2 weeks of treatment. The class given is in vivo. To be noted: day 15, AZM 10 mg/kg, RFP 10 mg/kg, ETB 100 mg/kg, CFZ 20 mg/kg, Q203 5 mg/kg. From the text:
(§1) Almost protocol was the same as the protocol described in Test1 above.

Data set [3] has as its system Mycobacterium avium ATCC700898. The experiment in a line: Test2: mouse lung infection model, CFU in lungs after 2 weeks of treatment. Format: in vivo. Particulars: day 15, CAM 200 mg/kg.
From the text: There were 6 study groups and 4 mice per group
as §1

The subject of data set [4] is Mycobacterium avium ATCC700898. Put plainly: Test1: mouse lung infection model, CFU in lungs after 2 weeks of treatment.
Protocol: There were 9 study groups and 4 mice per group
All treatments were evaluated on Mycobacterium avium ATCC700898.
All formulations prepared in 20% Tween20, 80% aq. (20% HP-ß-CD and 0. 6% HPMC, pH3).
All formulations were solutions and prepared every day.
Time Schedule, after mice were infected.
The mice were infected with Mycobacterium avium strain.
When 0.07 mL of this dilution is injected, each mouse receives 10^6 bacteria.
36 female 8-weeks old BALB/c mice, Charles River, were inoculated intranasally with 0.07 mL of a bacterial suspension containing ±10^6 colony forming units (CFU). […]
The effectiveness of treatments was assessed by counting the numbers of colony-forming-units (CFU) in the lungs. • 1.8 mL Mueller Hinton Broth (MHB) was added to each homogenization tube containing lung. • Lungs were homogenized, and four 10-fold serial dilutions were made in MHB. • From each individual lung, 100 μL of the undiluted suspension and four serial 10-fold dilutions, were plated on 7H10 agar plates. • CFU's were counted after incubation at 35° C. for 2 weeks. • The bactericidal effect of the treatment was defined as a significant decrease of the mean number of CFU in the treated group compared to pre-treatment value.
The next data set concerns MAC. Particulars: pulmonary disease patients infected by MAC; relapse still occurred; cited from earlier work.
A further data set deals with M. intracellulare. Particulars: in vitro, majority of M. intracellulare isolates; cited from earlier work.
The test system of a further data set is M. avium. Particulars: in vitro; cited from earlier work.
Another data set deals with cytochrome bc1 (Mycobacterium tuberculosis, UniProt P9WP37). Particulars: described in WO2017/049321 (HT-21) and WO2011/113606 (Q203); cited from earlier work.
Chain of cytochrome bc1 (P9WP37 whole entry, looked up): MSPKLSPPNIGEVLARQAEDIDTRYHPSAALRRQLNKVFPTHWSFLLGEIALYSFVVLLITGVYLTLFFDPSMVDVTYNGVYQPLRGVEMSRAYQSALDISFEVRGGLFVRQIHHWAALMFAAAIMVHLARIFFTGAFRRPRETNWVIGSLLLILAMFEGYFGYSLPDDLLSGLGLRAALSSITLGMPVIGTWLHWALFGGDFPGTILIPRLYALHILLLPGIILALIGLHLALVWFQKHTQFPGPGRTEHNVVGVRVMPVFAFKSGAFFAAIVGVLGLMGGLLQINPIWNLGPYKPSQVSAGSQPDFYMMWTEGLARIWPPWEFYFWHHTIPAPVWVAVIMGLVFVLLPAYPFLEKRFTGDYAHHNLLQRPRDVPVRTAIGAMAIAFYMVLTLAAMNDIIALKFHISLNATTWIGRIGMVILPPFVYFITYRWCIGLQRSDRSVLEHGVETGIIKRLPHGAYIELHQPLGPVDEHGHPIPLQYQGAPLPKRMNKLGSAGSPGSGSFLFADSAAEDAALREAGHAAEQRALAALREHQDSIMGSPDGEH
The next data set relates to TB. Particulars: in vitro and in vivo mouse model; cited from earlier work.

For the compound `CC[C@H]1OC(=O)[C@H](C)[C@@H](O[C@H]2C[C@@](C)(OC)[C@@H](O)[C@H](C)O2)[C@H](C)[C@@H](O[C@@H]2O[C@H](C)C[C@H](N(C)C)[C@H]2O)[C@](C)(O)C[C@@H](C)CN(C)[C@H](C)[C@@H](O)[C@]1(C)O` [AZM, Azithromycin], the “inhibition of CYP3A” value in data set [1] was “does not inhibit”. Further, the “Mean Log10 (CFU in lungs)” value in data set [2] is recorded as 6.19.

`CC[C@H]1OC(=O)[C@H](C)[C@@H](O[C@H]2C[C@@](C)(OC)[C@@H](O)[C@H](C)O2)[C@H](C)[C@@H](O[C@@H]2O[C@H](C)C[C@H](N(C)C)[C@H]2O)[C@](C)(OC)C[C@@H](C)C(=O)[C@H](C)[C@@H](O)[C@]1(C)O` [CAM, Clarithromycin]: the “drop in mean log 10 CFU from Control 2” value in data set [3] is reported as 1.0. The “Mean Log10 (CFU in lungs)” value came out at 4.85 in [3] (CFZ 20 mg/kg, HT-21 5 mg/kg or Q203 5 mg/kg) and 3.98 in [4] (BALB/c mice, day 15, oral once daily, 10 doses, CAM 200 mg/kg, RFP 20 mg/kg, ETB 100 mg/kg, CFZ 20 mg/kg). Further, in [1], the “inhibition of CYP3A” value is reported as “inhibits”.

Turning to `CC(C)/N=c1\cc2n(-c3ccc(Cl)cc3)c3ccccc3nc-2cc1Nc1ccc(Cl)cc1` [CFZ, Clofazimine], the “proportion of patients converted to negative cultures” value in the data set on MAC is reported as “significantly greater proportion”. Further, the values for the MIC in the data set on M. intracellulare and in the data set on M. avium were < 1 µg/mL and 1 to 4 µg/mL, respectively.

On to `Cc1ccn2c(C(=O)NCc3ccc(N4CCCN(c5ccc(C(F)(F)F)cc5)CC4)c(F)c3)c(C)nc2c1` [HT-21], for which, at cytochrome bc1, the “cytochrome bc1 inhibitory activity” value is given as “excellent cytochrome bc1 inhibitory activity”. Moreover, the “efficacy (CFU in lungs), in words” value in [4] (HT-21 200 mg/kg added to clarithromycin+clofazimine, cut off 2.00) was “the effect reached plateau”.

`CCc1nc2cc(C)ccn2c1C(=O)NCc1ccc(N2CCC(c3ccc(OC(F)(F)F)cc3)CC2)cc1` [Q203]: the “growth of TB” value with TB is listed as “inhibited the growth of TB”. Also, the “cytochrome bc1 inhibitory activity” value at cytochrome bc1 was “excellent cytochrome bc1 inhibitory activity”.
